Data published in US12679878B2, “CRF2 receptor agonists and their use in therapy” (SANOFI, priority 2020, dated 2026).
Read-outs that look alike come from different tables or passages of the source. Starred links: 1 amine or outer side, 2 acyl side, 3 side chain; linkers in the order of their positions; H or OH if unused. Non-standard residues stand in square brackets, D forms with d. Residues, ends and D or L forms follow the SMILES beside them. Groups on a side chain read outwards from the residue. *: point of attachment. C18 diacid = O=C(O)CCCCCCCCCCCCCCCCC(=O)*; γGlu = O=C(O)[C@H](CCC(=O)[*:2])N[*:1]; AEEA = NCCOCCOCC(=O)O; Aib = CC(C)(N)C(=O)O

Key:
Assay type in all cases: cell-based
rat CRF2R α receptor = test: cAMP agonism at rat CRF2R α receptor in A7R5 rat aortic smooth muscle cells (Example 8); conditions: cAMP HTRF, A7R5 rat aortic smooth muscle cell line, 0% HSA
Method in brief: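 Thawed cryopreserved A7R5 cells in HBSS/20 mM HEPES (0 or 0.1% HSA) with 2 mM IBMX, 2000 cells/well, were exposed to compound for 30 min at room temperature. cAMP was read by HTRF (665/620 nm ratio) after 1 h with lysis reagents. Activity was normalised to 1000 nM urocortin 2 as 100%, and EC50 was taken as the concentration giving 50% of maximal activation.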

CRF1R receptor = target: T1, CRF1R receptor (Homo sapiens, UniProt P34998); test: cAMP activity at anti-target CRF1R, CRF1R-overexpression CHO cell line (Example 9); conditions: CRF1R-overexpression CHO cell line; for EC50: 0% HSA; for Emax: read-out: Emax (%)
T1 construct: host or cells: CHO-K1 clone 2
T1 sequence (P34998 24-415): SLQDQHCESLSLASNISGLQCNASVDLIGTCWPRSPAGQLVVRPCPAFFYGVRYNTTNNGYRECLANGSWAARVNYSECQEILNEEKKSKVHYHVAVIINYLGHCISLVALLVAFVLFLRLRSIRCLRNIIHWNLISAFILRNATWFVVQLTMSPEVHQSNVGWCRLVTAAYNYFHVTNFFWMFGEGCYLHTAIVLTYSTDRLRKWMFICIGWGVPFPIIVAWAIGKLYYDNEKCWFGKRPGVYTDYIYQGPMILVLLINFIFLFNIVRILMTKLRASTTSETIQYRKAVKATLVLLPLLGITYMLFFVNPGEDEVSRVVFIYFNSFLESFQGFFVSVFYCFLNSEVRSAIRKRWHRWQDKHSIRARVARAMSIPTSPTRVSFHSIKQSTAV
Method in brief: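 cAMP accumulation was read by HTRF after 30 min at room temperature of compound treatment. Cells were cryopreserved CHO cells overexpressing CRF1R, plated at 2000/well in IBMX (2 mM)-containing HBSS/HEPES buffer with 0 or 0.1% HSA. Activity was normalized to 1000 nM UCN2 as 100%.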

human CRF2α receptor = target: T2, human CRF2α receptor (Homo sapiens, UniProt Q13324); test: cAMP agonism at human CRF2 α receptor in TeloHEAC cells (Example 7); conditions: cAMP HTRF, TeloHEAC cells stably expressing human CRF2 α
T2 construct: expressed in transfected cells; host or cells: TeloHEAC
T2 sequence (Q13324 1-411): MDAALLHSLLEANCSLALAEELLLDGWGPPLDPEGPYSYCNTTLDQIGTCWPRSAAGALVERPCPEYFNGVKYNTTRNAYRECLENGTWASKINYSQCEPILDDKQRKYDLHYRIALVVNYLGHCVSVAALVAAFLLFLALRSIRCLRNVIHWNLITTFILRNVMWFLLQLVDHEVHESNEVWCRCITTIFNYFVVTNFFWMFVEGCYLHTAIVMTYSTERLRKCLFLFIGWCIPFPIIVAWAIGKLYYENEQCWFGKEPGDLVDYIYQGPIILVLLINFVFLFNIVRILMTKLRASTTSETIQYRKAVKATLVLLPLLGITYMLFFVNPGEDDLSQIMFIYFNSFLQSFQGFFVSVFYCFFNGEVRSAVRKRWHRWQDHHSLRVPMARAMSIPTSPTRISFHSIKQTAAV
Method in brief: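 Percent activation was referenced to 1000 nM UCN2 (100%), and EC50 values taken as concentrations giving half of maximal response. The read-out was a homogeneous time-resolved fluorescence cAMP kit, fluorescence ratio 665/620 nm. Thawed cells (2000/well) saw compound for 30 min at RT in buffer with 2 mM IBMX and 0%/0.1% HSA.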

[1] = 0% HSA, read-out: EC50 [nM], 0% HSA
[2] = 0.1% HSA, read-out: EC50 [nM], 0.1% HSA

| Structure (SMILES) | EC50 (rat CRF2R α receptor) [nM] | EC50 (CRF1R receptor) [nM] | Emax (CRF1R receptor) [%] | EC50 (human CRF2α receptor; [1]) [nM] | EC50 (human CRF2α receptor; [2]) [nM] |
| --- | --- | --- | --- | --- | --- |
| CC[C@H](C)[C@H](N)C(=O)N[C@H](C(=O)N[C@@H](CC(C)C)C(=O)N[C@@H](CO)C(=O)N[C@@H](CC(C)C)C(=O)N[C@@H](CC(=O)O)C(=O)N[C@H](C(=O)N1CCC[C@H]1C(=O)N[C@H](C(=O)N[C@@H](CCCCN)C(=O)N[C@@H](CC(C)C)C(=O)N[C@@H](CCCCNC(=O)COCCOCCNC(=O)COCCOCCNC(=O)CC[C@H](NC(=O)CCCCCCCCCCCCCCCCC(=O)O)C(=O)O)C(=O)N[C@@H](CCC(N)=O)C(=O)N[C@H](C(=O)N[C@@H](CC(C)C)C(=O)N[C@@H](CC(C)C)C(=O)N[C@@H](CCCCN)C(=O)N[C@@H](CCC(N)=O)C(=O)N[C@@H](CCC(=O)O)C(=O)N[C@@H](CCCNC(=N)N)C(=O)N[C@@H](CCC(N)=O)C(=O)N[C@@H](CCCCN)C(=O)N[C@@H](CCCCN)C(=O)N[C@@H](CCC(N)=O)C(=O)N[C@@H](CCCNC(=N)N)C(=O)N[C@@H](CCC(=O)O)C(=O)N[C@@H](CCC(N)=O)C(=O)N[C@@H](C)C(=O)N[C@@H](CCCCN)C(=O)N[C@H](C(=O)N[C@@H](CC(N)=O)C(=O)N[C@@H](CCCCN)C(=O)N[C@@H](CCC(N)=O)C(=O)N[C@H](C(=O)N[C@@H](CC(C)C)C(=O)N[C@@H](C)C(=O)N[C@@H](CCC(N)=O)C(=O)N[C@H](C(N)=O)C(C)C)[C@@H](C)CC)[C@@H](C)O)[C@@H](C)CC)[C@@H](C)CC)C(C)C)C(C)C [compound 86] (H-IVLSLDVPIKLK([AEEA-AEEA-γGlu-C18 diacid])QILLKQERQKKQREQAKTNKQILAQV-NH2; N-terminus assumed) | 0.69 | > 1000 | 15.9 | 0.11 | 5.7 |
| CC[C@H](C)[C@H](N)C(=O)N[C@H](C(=O)N[C@@H](CC(C)C)C(=O)N[C@@H](CO)C(=O)N[C@@H](CC(C)C)C(=O)N[C@@H](CC(=O)O)C(=O)N[C@H](C(=O)N1CCC[C@H]1C(=O)N[C@H](C(=O)N[C@@H](CCCCN)C(=O)N[C@@H](CC(C)C)C(=O)N[C@@H](CCCCNC(=O)COCCOCCNC(=O)COCCOCCNC(=O)CC[C@H](NC(=O)CCCCCCCCCCCCCCCCC(=O)O)C(=O)O)C(=O)N[C@@H](CCC(N)=O)C(=O)N[C@H](C(=O)N[C@@H](CC(C)C)C(=O)N[C@@H](CC(C)C)C(=O)N[C@@H](CCCCN)C(=O)N[C@@H](CCC(N)=O)C(=O)N[C@@H](CCC(=O)O)C(=O)N[C@@H](CCCNC(=N)N)C(=O)N[C@@H](CCC(N)=O)C(=O)N[C@@H](CCCCN)C(=O)N[C@@H](CCCCN)C(=O)N[C@@H](CCC(N)=O)C(=O)N[C@@H](CCCNC(=N)N)C(=O)N[C@@H](CCC(=O)O)C(=O)N[C@@H](CCCCN)C(=O)N[C@@H](C)C(=O)N[C@@H](CCCCN)C(=O)N[C@H](C(=O)N[C@@H](CC(N)=O)C(=O)N[C@@H](CCCCN)C(=O)N[C@@H](CCC(N)=O)C(=O)N[C@H](C(=O)N[C@@H](CC(C)C)C(=O)N[C@@H](C)C(=O)N[C@@H](CCC(N)=O)C(=O)N[C@H](C(N)=O)C(C)C)[C@@H](C)CC)[C@@H](C)O)[C@@H](C)CC)[C@@H](C)CC)C(C)C)C(C)C [compound 87] (H-IVLSLDVPIKLK([AEEA-AEEA-γGlu-C18 diacid])QILLKQERQKKQREKAKTNKQILAQV-NH2; N-terminus assumed) | 1.49 | > 1000 | -0.2 | 0.23 | 16.2 |
| CC[C@H](C)[C@H](N)C(=O)N[C@H](C(=O)N[C@@H](CC(C)C)C(=O)N[C@@H](CO)C(=O)N[C@@H](CC(C)C)C(=O)N[C@@H](CC(=O)O)C(=O)N[C@H](C(=O)N1CCC[C@H]1C(=O)N[C@H](C(=O)N[C@@H](CCCCN)C(=O)N[C@@H](CC(C)C)C(=O)N[C@@H](CCCCNC(=O)COCCOCCNC(=O)COCCOCCNC(=O)CC[C@H](NC(=O)CCCCCCCCCCCCCCCCC(=O)O)C(=O)O)C(=O)N[C@@H](CCCCN)C(=O)N[C@H](C(=O)N[C@@H](CC(C)C)C(=O)N[C@@H](CC(C)C)C(=O)N[C@@H](CCCCN)C(=O)N[C@@H](CCC(N)=O)C(=O)N[C@@H](CCC(=O)O)C(=O)N[C@@H](CCCNC(=N)N)C(=O)N[C@@H](CCC(N)=O)C(=O)N[C@@H](CCCCN)C(=O)N[C@@H](CCCCN)C(=O)NC(C)(C)C(=O)N[C@@H](CCCNC(=N)N)C(=O)N[C@@H](CCC(=O)O)C(=O)N[C@@H](CCC(N)=O)C(=O)N[C@@H](C)C(=O)N[C@@H](CCC(=O)O)C(=O)N[C@H](C(=O)N[C@@H](CC(N)=O)C(=O)NC(C)(C)C(=O)N[C@@H](CCC(N)=O)C(=O)N[C@H](C(=O)N[C@@H](CC(C)C)C(=O)N[C@@H](C)C(=O)N[C@@H](CCC(N)=O)C(=O)N[C@H](C(N)=O)C(C)C)[C@@H](C)CC)[C@@H](C)O)[C@@H](C)CC)[C@@H](C)CC)C(C)C)C(C)C [compound 100] (H-IVLSLDVPIKLK([AEEA-AEEA-γGlu-C18 diacid])KILLKQERQKK[Aib]REQAETN[Aib]QILAQV-NH2; N-terminus assumed) | 7.52 | > 1000 | 5.06 | 0.51 | 20.5 |
| CC[C@H](C)[C@H](N)C(=O)N[C@H](C(=O)N[C@@H](CC(C)C)C(=O)N[C@@H](CO)C(=O)N[C@@H](CC(C)C)C(=O)N[C@@H](CC(=O)O)C(=O)N[C@H](C(=O)N1CCC[C@H]1C(=O)N[C@H](C(=O)N[C@@H](CCCCN)C(=O)N[C@@H](CC(C)C)C(=O)N[C@@H](CCCCNC(=O)COCCOCCNC(=O)COCCOCCNC(=O)CC[C@H](NC(=O)CCCCCCCCCCCCCCCCC(=O)O)C(=O)O)C(=O)N[C@@H](CCCCN)C(=O)N[C@H](C(=O)N[C@@H](CC(C)C)C(=O)N[C@@H](CC(C)C)C(=O)N[C@@H](CCCCN)C(=O)N[C@@H](CCC(N)=O)C(=O)N[C@@H](CCC(=O)O)C(=O)N[C@@H](CCCNC(=N)N)C(=O)N[C@@H](CCC(N)=O)C(=O)N[C@@H](CCCCN)C(=O)N[C@@H](CCCCN)C(=O)NC(C)(C)C(=O)N[C@@H](CCCNC(=N)N)C(=O)N[C@@H](CCC(=O)O)C(=O)N[C@@H](CCC(N)=O)C(=O)N[C@@H](C)C(=O)N[C@@H](CCC(=O)O)C(=O)N[C@H](C(=O)N[C@@H](CC(N)=O)C(=O)N[C@@H](CCCCN)C(=O)N[C@@H](CCC(N)=O)C(=O)N[C@H](C(=O)N[C@@H](CC(C)C)C(=O)N[C@@H](CCC(=O)O)C(=O)N[C@@H](CCCNC(=N)N)C(=O)N[C@H](C(N)=O)C(C)C)[C@@H](C)CC)[C@@H](C)O)[C@@H](C)CC)[C@@H](C)CC)C(C)C)C(C)C [compound 101] (H-IVLSLDVPIKLK([AEEA-AEEA-γGlu-C18 diacid])KILLKQERQKK[Aib]REQAETNKQILERV-NH2; N-terminus assumed) | 1.02 | > 1000 | -0.34 | 0.11 | 4.28 |
